What was measured:
[1] = test system: TRZAWR (Wheat, Winter, cv Riband); experiment: Preemergence herbicidal evaluation; assay type: in vivo, Triticum aestivum; conditions: preemergence, rated 4-5 weeks after treatment, 0-9 scale
Method in brief: (§1)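 Seeds were mixed with potting soil and planted on about one inch of soil, then sprayed with test compound in aqueous acetone at about 0.0156 to 0.500 kg per hectare. Plants grew under standard greenhouse care and were visually rated 0-9 against untreated controls 4-5 weeks post-treatment.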

[2] = test system: GLXMAW (Soybean, Williams); experiment: Preemergence herbicidal evaluation; assay type: in vivo, Glycine max, (L.) Merr. cv Williams; conditions: preemergence, rated 4-5 weeks after treatment, 0-9 scale
Method in brief: as §1

MOOVA (Monochoria) = experiment: Postemergence weed control under flooded paddy conditions; assay type: in vivo, Monochoria vaginalis; conditions: postemergence weeds, rated 3 to 4 weeks after treatment
Method in brief: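 With weeds 3 to 5 cm tall and rice at the 1.5 to 2.5 leaf stage, containers were flooded and water held 1.5 to 3 cm above soil. Compounds in 50/50 v/v aqueous/acetone went into the flood water at about 0.0313 to 0.500 kg/ha a.i. Effects were visually rated 0–9 against controls after three to four weeks in the greenhouse.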

ORYSAT (Rice, Tebonnet) = experiment: Preemergence herbicidal evaluation; assay type: in vivo, Oryza sativa, (L.) Tebonnet; conditions: preemergence, rated 4-5 weeks after treatment, 0-9 scale
Method in brief: as §1

CASOB (Sicklepod) = experiment: Postemergence herbicidal evaluation; assay type: in vivo, Cassia obtusifolia; conditions: postemergence
Method in brief: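 Compound is applied as a foliar spray to seedlings about two weeks old, formulated in equal parts acetone and water with 0.5% TWEEN 20 and delivered at 40 psi to give about 0.0156–0.500 kg per hectare. Injury is rated visually 0–9 after four to five weeks.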

[3] = test system: SAGPY (Arrowhead (Pygmaea)); experiment: Preemergence weed control under flooded paddy conditions; assay type: in vivo, Sagittaria pygmaea; conditions: rated 3-4 weeks after treatment
Method in brief: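 Visual injury scored 0-9 against control three to four weeks post-treatment, greenhouse-grown. Application: acetone/water (50/50) solutions dosed directly into flood water (1.5-3 cm over silt loam, planted top 0.5 cm), roughly 0.0313 to 0.500 kg/ha active ingredient.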

SMILES	TRZAWR rating ([1]; 0.0156 kg/ha)	TRZAWR rating ([1]; 0.0313 kg/ha)	TRZAWR rating ([1]; 0.0625 kg/ha)	TRZAWR rating ([1]; 0.2500 kg/ha)	TRZAWR rating ([1]; 0.5000 kg/ha)	GLXMAW rating ([2]; 0.0156 kg/ha)	GLXMAW rating ([2]; 0.0313 kg/ha)	GLXMAW rating ([2]; 0.0625 kg/ha)	GLXMAW rating ([2]; 0.2500 kg/ha)	GLXMAW rating ([2]; 0.5000 kg/ha)	Herbicidal rating MOOVA (MOOVA (Monochoria); Rate 0.2500 kg/ha)	ORYSAT rating (ORYSAT (Rice, Tebonnet); 0.0156 kg/ha)	ORYSAT rating (ORYSAT (Rice, Tebonnet); 0.0313 kg/ha)	ORYSAT rating (ORYSAT (Rice, Tebonnet); 0.0625 kg/ha)	ORYSAT rating (ORYSAT (Rice, Tebonnet); 0.2500 kg/ha)	ORYSAT rating (ORYSAT (Rice, Tebonnet); 0.5000 kg/ha)	Herbicidal rating CASOB (CASOB (Sicklepod); rate 0.0156 kg/ha)	Herbicidal rating CASOB (CASOB (Sicklepod); rate 0.0313 kg/ha)	Herbicidal rating CASOB (CASOB (Sicklepod); rate 0.0625 kg/ha)	SAGPY herbicidal effect rating ([3]; 0.2500 kg/ha)	other results
CN1C(=O)C(CC(=O)NS(=O)(=O)c2ccccc2)SC1=Nc1cc(-n2c(=O)cc(C(F)(F)F)n(C)c2=O)c(F)cc1Cl (centres unmarked) [Compound 102, 2-{{2-Chloro-5-[3,6-dihydro-3-methyl-2,6-dioxo-4-(trifluoromethyl)-1(2H)-pyrimidinyl]-4-fluorophenyl}imino}-3-methyl-4-oxo-N-(phenylsulfonyl)-5-thiazolidineacetamide]	0.0	0.0	0.0	0.0	1.0	0.0	0.0	0.0	1.0	4.0	0.0	0.0	0.0	0.0	0.0	1.0	0.0	1.0	1.0	0.0	Herbicidal rating MOOVA (MOOVA (Monochoria); Rate 0.5000 kg/ha): 4.0; Herbicidal rating CASOB (CASOB (Sicklepod); rate 0.1250 kg/ha): 3.0; SAGPY herbicidal effect rating ([3]; 0.5000 kg/ha): 0.0
C=CCN1C(=O)C(CC(=O)NS(=O)(=O)CC)SC1=Nc1cc(-n2c(=O)cc(C(F)(F)F)n(C)c2=O)c(F)cc1Cl (centres unmarked) [Compound 104, 3-Allyl-2-{{2-chloro-5-[3,6-dihydro-3-methyl-2,6-dioxo-4-(trifluoromethyl)-1(2H)-pyrimidinyl]-4-fluorophenyl}imino}-N-(ethylsulfonyl)-4-oxo-5-thiazolidineacetamide]			0.0	0.0	1.0			0.0	0.0	3.0	9.0			0.0	0.0	0.0	0.0	0.0	0.0	9.0	TRZAWR rating ([1]; 0.1250 kg/ha): 0.0; GLXMAW rating ([2]; 0.1250 kg/ha): 0.0; Herbicidal rating MOOVA (MOOVA (Monochoria); Rate 0.0313 kg/ha): 7.0; Herbicidal rating MOOVA (MOOVA (Monochoria); Rate 0.0625 kg/ha): 9.0; Herbicidal rating MOOVA (MOOVA (Monochoria); Rate 0.1250 kg/ha): 9.0; ORYSAT rating (ORYSAT (Rice, Tebonnet); 0.1250 kg/ha): 0.0; Herbicidal rating CASOB (CASOB (Sicklepod); rate 0.1250 kg/ha): 1.0; SAGPY herbicidal effect rating ([3]; 0.0313 kg/ha): 6.0; SAGPY herbicidal effect rating ([3]; 0.0625 kg/ha): 9.0; SAGPY herbicidal effect rating ([3]; 0.1250 kg/ha): 9.0
CCOC(=O)CN1C(=O)C(CC(=O)NOC)SC1=Nc1cc(-n2c(=O)cc(C(F)(F)F)n(C)c2=O)c(F)cc1Cl (centres unmarked) [Compound 83, Ethyl 2-{{2-chloro-5-[3,6-dihydro-3-methyl-2,6-dioxo-4-(trifluoromethyl)-1(2H)-pyrimidinyl]-4-fluorophenyl}imino}-5-[(methoxycarbamoyl)methyl]-4-oxo-3-thiazolidineacetate]	0.0	0.0	0.0	0.0	5.0	0.0	0.0	0.0	5.0	7.0	9.0	0.0	0.0	0.0	0.0	5.0				9.0	TRZAWR rating ([1]; 0.1250 kg/ha): 0.0; GLXMAW rating ([2]; 0.1250 kg/ha): 0.0; Herbicidal rating MOOVA (MOOVA (Monochoria); Rate 0.0313 kg/ha): 9.0; Herbicidal rating MOOVA (MOOVA (Monochoria); Rate 0.0625 kg/ha): 9.0; Herbicidal rating MOOVA (MOOVA (Monochoria); Rate 0.1250 kg/ha): 9.0; ORYSAT rating (ORYSAT (Rice, Tebonnet); 0.1250 kg/ha): 0.0; CASOB herbicidal rating (CASOB (Sicklepod); rate 0.0156 kg/ha): 0.0; CASOB herbicidal rating (CASOB (Sicklepod); rate 0.0313 kg/ha): 9.0; CASOB herbicidal rating (CASOB (Sicklepod); rate 0.0625 kg/ha): 7.0; CASOB herbicidal rating (CASOB (Sicklepod); rate 0.1250 kg/ha): 9.0; SAGPY herbicidal effect rating ([3]; 0.0313 kg/ha): 7.0; SAGPY herbicidal effect rating ([3]; 0.0625 kg/ha): 7.0; SAGPY herbicidal effect rating ([3]; 0.1250 kg/ha): 7.0

— patent US20020137929A1, “1 - (3-heterocyclylphenyl) isothiourea, -isourea, -guanidine and -amidine herbicidal agents” (Intellectual Property Department, BASF Aktiengesellschaft, priority 1998, published 2002)
